# Measured values as given in PubChem BioAssay (NCI).
#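 Protocol summary: plate cells (96-well), add compound at 5 concentrations, incubate 48 h, interpolate endpoints linearly. TGI denotes the concentration required for complete inhibition of growth.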
# Tests used:
# Assay in all cases: NCI-60 cell line screen, 48 h
# [1] = system: K-562 leukemia
# [2] = system: SK-MEL-28 melanoma
# [3] = system: SF-268 CNS
# [4] = system: HL-60(TB) leukemia
# [5] = system: MDA-MB-435
# [6] = system: SF-539 CNS
# [7] = system: EKVX NSCLC
# [8] = system: COLO 205 colon
# [9] = system: NCI-H460 lung
# [10] = system: HCT-15 colon
# [11] = system: UACC-257 melanoma
# [12] = system: DU-145 prostate
# [13] = system: NCI-H226 lung
# [14] = system: RXF 393 renal
# [15] = system: UACC-62 melanoma
# [16] = system: SK-MEL-2 melanoma
# [17] = system: A549 NSCLC
# [18] = system: U251 CNS
# [19] = system: MALME-3M melanoma
# [20] = system: MCF7 breast
# [21] = system: A498 renal
# [22] = system: MDA-N
# [23] = system: RPMI-8226 leukemia
# [24] = system: CCRF-CEM leukemia
# [25] = system: SR leukemia
# [26] = system: HOP-92 NSCLC
# [27] = system: HS 578T breast
# [28] = system: SW-620 colon
# [29] = system: PC-3 prostate
# [30] = system: NCI-H522 lung
# [31] = system: BT-549 breast
# [32] = system: T-47D breast
# [33] = system: OVCAR-5 ovarian
# [34] = system: 786-0 renal
# [35] = system: OVCAR-8 ovarian
# [36] = system: HOP-62 NSCLC
# [37] = system: SK-OV-3 ovarian
# [38] = system: OVCAR-4 ovarian
# [39] = system: CAKI-1 renal
# [40] = system: IGROV1 ovarian
# [41] = system: ACHN renal
# [42] = system: SF-295 CNS
# [43] = system: OVCAR-3 ovarian
# [44] = system: SK-MEL-5 melanoma
# [45] = system: TK-10 renal
# [46] = system: KM12 colon
# [47] = system: MDA-MB-231 breast
# [48] = system: NCI/ADR-RES ovarian
# [49] = system: HCC-2998 colon
# [50] = system: HT29 colon
# [51] = system: LOX IMVI melanoma
# [52] = system: M14 melanoma
# [53] = system: SN12C renal
# [54] = system: HCT-116 colon
# [55] = system: UO-31 renal
# [56] = system: NCI-H23 lung
# [57] = system: SNB-19 CNS
# [58] = system: MOLT-4 leukemia
# [59] = system: SNB-75 CNS
smiles,measurement,setting,value
CN1CCN(CC(=O)Nc2cccc3ccccc23)CC1,TGI,[1],> 100 µM
same,TGI,[2],> 100 µM
same,TGI,[3],> 100 µM
same,TGI,[4],> 100 µM
same,TGI,[5],> 100 µM
same,TGI,[6],> 100 µM
same,TGI,[7],> 100 µM
same,TGI,[8],> 100 µM
same,TGI,[9],> 100 µM
same,TGI,[10],> 100 µM
same,TGI,[11],> 100 µM
same,TGI,[12],> 100 µM
same,TGI,[13],> 100 µM
same,TGI,[14],> 100 µM
same,TGI,[15],> 100 µM
same,TGI,[16],> 100 µM
same,TGI,[17],> 100 µM
same,TGI,[18],> 100 µM
same,TGI,[19],> 100 µM
same,TGI,[20],> 100 µM
same,TGI,[21],> 100 µM
same,TGI,[22],> 100 µM
same,TGI,[23],> 100 µM
same,TGI,[24],> 100 µM
same,TGI,[25],> 100 µM
same,TGI,[26],> 100 µM
same,TGI,[27],> 100 µM
same,TGI,[28],> 100 µM
same,TGI,[29],> 100 µM
same,TGI,[30],> 100 µM
same,TGI,[31],> 100 µM
same,TGI,[32],> 100 µM
same,TGI,[33],> 100 µM
same,TGI,[34],> 100 µM
same,TGI,[35],> 100 µM
same,TGI,[36],> 100 µM
same,TGI,[37],> 100 µM
same,TGI,[38],> 100 µM
same,TGI,[39],> 100 µM
same,TGI,[40],> 100 µM
same,TGI,[41],> 100 µM
same,TGI,[42],> 100 µM
same,TGI,[43],> 100 µM
same,TGI,[44],> 100 µM
same,TGI,[45],> 100 µM
same,TGI,[46],> 100 µM
same,TGI,[47],> 100 µM
same,TGI,[48],> 100 µM
same,TGI,[49],> 100 µM
same,TGI,[50],> 31.6 µM
same,TGI,[51],> 100 µM
same,TGI,[52],> 100 µM
same,TGI,[53],> 100 µM
same,TGI,[54],> 100 µM
same,TGI,[55],> 100 µM
same,TGI,[56],> 100 µM
same,TGI,[57],> 100 µM
same,TGI,[58],> 100 µM
N=C(N)SCCc1ccncc1,TGI,[1],> 100 µM
same,TGI,[2],> 100 µM
same,TGI,[3],> 100 µM
same,TGI,[4],> 100 µM
same,TGI,[5],> 100 µM
same,TGI,[6],> 100 µM
same,TGI,[7],> 100 µM
same,TGI,[8],> 100 µM
same,TGI,[9],> 100 µM
same,TGI,[10],> 100 µM
same,TGI,[11],> 100 µM
same,TGI,[12],> 100 µM
same,TGI,[13],> 100 µM
same,TGI,[14],> 100 µM
same,TGI,[15],> 100 µM
same,TGI,[16],> 100 µM
same,TGI,[17],> 100 µM
same,TGI,[18],> 100 µM
same,TGI,[20],> 100 µM
same,TGI,[21],> 100 µM
same,TGI,[22],> 100 µM
same,TGI,[23],> 100 µM
same,TGI,[24],> 100 µM
same,TGI,[25],> 100 µM
same,TGI,[26],> 100 µM
same,TGI,[27],> 100 µM
same,TGI,[28],> 100 µM
same,TGI,[29],> 100 µM
same,TGI,[31],> 100 µM
same,TGI,[32],> 100 µM
same,TGI,[33],> 100 µM
same,TGI,[34],> 100 µM
same,TGI,[35],> 100 µM
same,TGI,[36],> 100 µM
same,TGI,[37],> 100 µM
same,TGI,[38],> 100 µM
same,TGI,[39],> 100 µM
same,TGI,[40],> 100 µM
same,TGI,[41],> 100 µM
same,TGI,[42],> 100 µM
same,TGI,[43],> 100 µM
same,TGI,[44],> 100 µM
same,TGI,[45],> 100 µM
same,TGI,[59],> 100 µM
same,TGI,[46],> 100 µM
same,TGI,[47],> 100 µM
same,TGI,[48],> 100 µM
same,TGI,[50],> 100 µM
same,TGI,[51],> 100 µM
same,TGI,[52],> 100 µM
same,TGI,[53],> 100 µM
same,TGI,[54],> 100 µM
same,TGI,[55],> 100 µM
same,TGI,[56],> 100 µM
same,TGI,[57],> 100 µM
same,TGI,[58],> 100 µM
CC1CCC2(NC1)OC1CC3C4CCC5CC(OC6OC(CO)C(OC7OC(CO)C(O)C(OC8OCC(O)C(O)C8O)C7OC7OC(CO)C(O)C(O)C7O)C(O)C6O)CCC5(C)C4CCC3(C)C1C2C (centres undefined),TGI,[1],> 21.2 µM
same,TGI,[2],3.46 µM
same,TGI,[3],3.32 µM
same,TGI,[4],4.93 µM
same,TGI,[5],3.03 µM
same,TGI,[7],2.37 µM
same,TGI,[8],4 µM
same,TGI,[9],4.16 µM
same,TGI,[11],4.65 µM
same,TGI,[12],3.46 µM
same,TGI,[13],3.72 µM
same,TGI,[15],2.65 µM
same,TGI,[16],3.75 µM
same,TGI,[17],4.99 µM
same,TGI,[18],3.07 µM
same,TGI,[19],2.83 µM
same,TGI,[20],6.3 µM
same,TGI,[21],3.75 µM
same,TGI,[22],1.02 µM
same,TGI,[23],4.01 µM
same,TGI,[24],> 22 µM
same,TGI,[25],> 100 µM
same,TGI,[27],3.85 µM
same,TGI,[28],3.94 µM
same,TGI,[29],1.05 µM
same,TGI,[30],3.12 µM
same,TGI,[31],5.97 µM
same,TGI,[32],5.07 µM
same,TGI,[33],2.73 µM
same,TGI,[36],3.68 µM
same,TGI,[38],3.1 µM
same,TGI,[39],2.11 µM
same,TGI,[40],1.86 µM
same,TGI,[41],4.82 µM
same,TGI,[42],2.32 µM
same,TGI,[43],3.12 µM
same,TGI,[44],3.56 µM
same,TGI,[45],3.4 µM
same,TGI,[59],3.56 µM
same,TGI,[46],4.64 µM
same,TGI,[47],3.4 µM
same,TGI,[48],3.93 µM
same,TGI,[49],2.78 µM
same,TGI,[50],3.26 µM
same,TGI,[51],> 100 µM
same,TGI,[52],3.02 µM
same,TGI,[53],3.32 µM
same,TGI,[54],6.98 µM
same,TGI,[55],2.69 µM
same,TGI,[57],3.38 µM
